Results published in PubChem BioAssay AID179 (DTP/NCI, 2004).
Activity calls are given as the source filed them.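 Rule for the calls: active = compounds giving half or more protection of infected cells from virus-caused growth loss, again on retest; inactive = the rest.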

Tested on: CEM cells HIV-1 protection, formazan growth assay
Test: NCI AIDS Antiviral Assay
Conditions: for IC50: measured here: growth of uninfected CEM cells
Method in brief: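 Category rules: moderately active means at least 50% protection on retest, and confirmed active means 100% protection reproducibly. The underlying data came from a formazan growth assay in HIV-1-infected CEM cells.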

Compound | EC50 [µM] | IC50 [µM] | outcome
Cn1cnc([N+](=O)[O-])c1Sc1ccccc1N | > 525 | 61.7 | 
Cc1nc2[nH]ncn2c(=O)c1CCCl | > 200 | 34.7 | 
Oc1ccc(Br)cc1C=Nc1c(NC2CCCCC2)oc2ccc(Br)cc12 |  |  | inactive
COc1ccc(/C(=N/NC(N)=O)C(c2ccc(OC)cc2)C2C(=O)Oc3ccccc32)cc1 (stereo not drawn) | > 30.2 | > 30.2 | 
Cc1cc(OC(F)(F)c2nc3ccccc3o2)cc(C)c1C | 25.1 | 26.9 | 
C=CS(=O)(=O)c1c2cc(OC)ccc2nc2ccc(OC)cc12 | > 20 | 2.88 | 
Nc1ccn(C2CC(CO)C(CO)C2)c(=O)n1 (stereo not drawn) | > 209 | > 209 | 
Clc1ccc(NC2=NCCN=C(Nc3ccc(Cl)c(Cl)c3)SS2)cc1Cl | > 11.2 | > 11.2 | 
Cc1ccc2c(c1)C=CC1(O2)N(c2ccccc2)C(=S)OC1(C)C (stereo not drawn) | > 200 | 22.4 | 
CCOC(=O)c1ccc(C(=O)n2ccnc2)[nH]1 | > 200 | > 200 | 
COCO[C@@H]1C[C@H]2C(=O)Nc3ccccc3C(=O)N2C1 | > 200 | 38 | 
NC1C(O)C(O)C(O)C(O)C1O (stereo not drawn) | > 7240 | > 7240 | 
COc1ccc2c(c1)N(S(=O)(=O)c1ccc(C)cc1)CC1=C2CCP1(C)=O (stereo not drawn) |  |  | inactive
NC(N)=N/N=C/C(Cl)(Cl)Cl | > 200 | > 200 | 
NC(=O)C(=O)CC(=O)c1ccccc1NC1=CC(=O)C(=O)c2ccccc21 | > 20 | > 20 | 
CCN(CC)CC(=O)NC1c2ccccc2Oc2ccccc21 | > 219 | > 219 | 
Cc1ccc2c(c1C)CC1(Cc3c(ccc4c3CCC4)C1=O)C2=O (stereo not drawn) | > 100 | > 100 | 
O=C1C(S(=O)(=O)c2ccccc2)=C(CS(=O)(=O)c2ccccc2)[C@@H](OCc2ccccc2)[C@@H]1OCc1ccccc1 | > 20 | 9.55 | 
CC(C)(C)C(C)(C)SSC(C)(C)C(C)(C)C | > 200 | > 200 | 
c1csc(-c2cc(-c3ccsc3)c(-c3ccsc3)s2)c1 | > 200 | 148 | 
O=C(CC(=O)N1N=C(N(c2ccccc2)c2ccccc2)CC1c1ccccc1)Nc1ccccc1 (stereo not drawn) |  |  | inactive
Cc1cccc2c1C(=O)C(C1OC(=O)c3ccccc31)C2 (stereo not drawn) | > 100 | > 100 | 
COC(=O)CC1N=C(NC#N)N(CCc2c[nH]c3ccccc23)C1=O (stereo not drawn) |  |  | inactive

Compound | EC50 [µM] | IC50 [µM] | outcome
O=C1CCC(N2C(=O)C3CC=CCC3C2=O)C(=O)N1 (stereo not drawn) | > 200 | > 200 | 
Nc1nc(N)c(C2=CCN(Cc3ccccc3)CC2)c(=O)[nH]1 | > 200 | > 200 | 
Cc1oc(N)c(C#N)c1C |  |  | inactive
COc1cccc(/C=N/[N-]C(=O)c2ccncc2)c1[O-].[Co+2].[OH3+] | > 20.9 | > 20.9 | 
N#CCN(CC#N)C1CC=CCC1N(CC#N)CC#N (stereo not drawn) | > 200 | 102 | 
CC(C)[Si](OC12CCC(CC1O)CC2CO)(C(C)C)C(C)C (stereo not drawn) | > 200 | 24.5 | 
O=C1/C(=C\c2ccccc2)Oc2ccc(Cl)cc21 | > 14.5 | > 14.5 | 
O=[N+]([O-])c1ccc(O)c(C=NCC2CCCN3CCCCC23)c1 (stereo not drawn) | > 200 | 39.8 | 
CC1(C)CNCC2(C)OCCCOC3(C)CNCC(C)(C)NC(=O)C(C)(CNCC(C)(C)NC3=O)OCCCOC(C)(CNCC(C)(C)NC2=O)C(=O)N1 | > 200 | > 200 | 
Cc1cccc(Cl)c1NC=O |  |  | inactive
COc1ccc2nc3cc([N+](=O)[O-])ccc3c(NCCO)c2c1 | > 200 | 1.05 | 
CCc1cccc(CC)c1NC(=O)C1=CNC(C)=C(C(=O)Nc2c(CC)cccc2CC)C1c1ccc(O)c(OC)c1 (stereo not drawn) | > 63.1 | 49 | 
N#CC(NNC(=O)c1ccccc1O)c1ccccc1 (stereo not drawn) | > 9.33 | 0.339 | 
COc1ccccc1C1C2=C(COC2=O)OC(C)(C)Oc2cc3c(cc21)OCO3 (stereo not drawn) |  |  | inactive
CN1C(=O)/C(=C2\SC(=O)N(CNc3ccc(Br)cc3)C2=O)c2ccccc21 | > 200 | 15.5 | 
COc1nc(C(=O)O)c(Cl)c(OC)c1Cl | > 513 | > 513 | 
c1ccc(C2=NOCC3(c4ccccc4)OC23)cc1 (stereo not drawn) | > 31.6 | 12 | 
COc1c(O)c2c(=O)cc(OC)c3c4c(OC)cc(=O)c5c(O)c(OC)c6c(c(c1C(C(C)=O)C6C(C)O)c23)c54 (stereo not drawn) | > 20 | 0.316 | 
O=C1[C@H]2ON(c3ccccc3)C(c3ccccc3F)[C@H]2C(=O)N1c1ccc(Cc2ccc(N3C(=O)[C@@H]4ON(c5ccccc5)C(c5ccccc5F)[C@@H]4C3=O)cc2)cc1 (stereo partly drawn) | > 9.12 | > 9.12 | 
N=C1N(c2ccccc2)C(=O)CC(=O)N1c1ccccc1 | > 200 | 53.7 | 
Cc1cc2c(cc1C)[n+](=O)c(C(=O)C/C(=N/NC(=O)CC#N)C(=O)Nc1ccccc1C(F)(F)F)c(C)n2[O-] | > 13.2 | > 13.2 | 
c1ccc(-c2nnc3nn4c(-c5ccccc5)cnnc4c3c2-c2ccccc2)cc1 | > 9.33 | > 9.33 | 
